The values that follow come from patent US9856212B1, “Biphenyl compounds and applications thereof” (Shenyang Sinochem Agrochemicals R&D Co., Ltd., priority 2017, dated 2018).

Assay type in all cases: in vivo
The test system of data set [1] is egg of spider mite (Tetranychuscinnabarinus). As to the kind of experiment: Test against egg of spider mite, greenhouse spray. The following applies: eggs, 5 days. As for the experimental part:
Two true leaves of bean plants were taken and one true leaf was removed. Then ten healthy female adult spider mites were put into the true leaf. The adult spider mites were removed after 24 h and the eggs were investigated. The solution of certain concentrations of test compounds was sprayed by using a sprinkler. Three replicates were set for each treatment. The untreated eggs were all incubated after 5 days. The unincubation of treated eggs in leaf was observed, and incubation inhibition rate of the eggs was determined.

The subject of data set [2] is citrus red mite (Panonychuscitri). As to the kind of experiment: Field trial against citrus red mite (Jiangxi, China). To be noted: orange orchard. As for the experimental part: The trial was carried out in a 2-year-old Shatang orange orchard in Ganzhou city Jiangxi province, trifoliate orange trees were selected as stocks, the intervals between two plants was 1.50×2.50 m, the average height was 1.45 m and the crown width was 1.30 m. Two trees were selected in each plot, with random arrangement and 4 replications. Compound 1 (10% SC) was set at three different doses (100 mg/L, 50 mg/L and 25 mg/L), spirodiclofen (29% SC) was set at one dose (50 mg/L), and pyridaben (20% EC) was set at one dose (100 mg/L). MatabiSupergreen 16 Knapsack Sprayer 16 Liter was used to spray evenly with 2 L of spraying volume for each plant. The plants were treated once in May at that time, adults, nymphs, eggs of citrus red mite all existed, with adults/eggs=1/1.2. During the day the plants were treated, and the weather was good with the average temperature at 24° C. The first three days after treatment were all clear days. The number of mites was investigated before treatment and on the 1st, 3rd, 7th, 14th, 22nd and 28th day after treatment respectively. Two trees of each plot were investigated according to the five directions of the tree crown (east, south, west, north and central), 5 leaves in each direction were investigated to calculate the number of living mites, with 50 leaves each plot. The decline rate of mite population and corrected efficacy were calculated according to formulas below: The decline rate of mite population (%)=[(the average number of mite on each leaf before treatment−the average number of mite on each leaf after treatment)/the average number of mite on each leaf before treatment]×100. Corrected efficacy (%)=[(the decline rate of mite population in treated area−the decline rate of mite population in untreated area)/(100−the decline rate of mite population in untreated area)]×100.

Data set [3] concerns adult spider mites (Tetranychuscinnabarinus). The experiment in a line: Test against adult spider mite, greenhouse spray on bean leaves. To be noted: after 72 h. As for the experimental part: The adult spider mites (Tetranychuscinnabarinus) were put into two true leaves of bean plants. After the number of mites were investigated, the solution of certain concentrations of test compounds was sprayed by using a sprinkler. Three replicates were set for each treatment. Then the leaves were maintained in standard observation room. After 72 h the survival mites in each leaf were observed, and mortality of the mites was determined.

Data set [4] deals with deutonymph of spider mite (Tetranychuscinnabarinus). As to the kind of experiment: Test against deutonymph of spider mite, greenhouse spray. The following applies: after 72 h. As for the experimental part: Ten healthy female adult spider mites (Tetranychuscinnabarinus) were put into two true leaves of bean plants. The adult spider mites were removed after 24 h and the eggs were to be continued incubating. After ten days, the number of deutonymph were investigated and recorded. The solution of certain concentrations of test compounds was sprayed by using a sprinkler. Three replicates were set for each treatment. Then the deutonymph of spider mites were maintained in standard observation room. After 72 h, the survival mites in each leaf were observed, and mortality of the mites was determined.

The test system of the next data set is spider mites. As to the kind of experiment: Test of systemic activity against spider mite through root absorption. The following applies: root absorption 24 h, mites on bean leaves, after 72 h. The protocol: The high acaricidal compound 1 were dissolved in acetone, and then diluted with 0.1% aqueous solution of Tween 80 to form test solution in different concentration. Three replicates were set for each treatment. Water is blank control. The 10 ml compound 1 solution was added into the tube. Two true leaves bean plants were taken and the soil in the root was removed. The bean plant was dipped into the test solution in different concentration. After absorbing 24 h, 30 to 50 spider mites were put onto the true leaves. Then the bean plants were maintained in observation room at 25±1° C. After 72 h, the death and survival mites in each leaf was observed, the mortality of the mites and systemic activity was determined.

Where [5] appears, read: 50 mg/L, the 1st day after treatment.
Where [6] appears, read: 50 mg/L, the 3rd day after treatment.
Where [7] appears, read: 50 mg/L, the 7th day after treatment.
The mark [8] stands for this setting: 50 mg/L, the 14th day after treatment.
The mark [9] stands for this setting: 50 mg/L, the 22nd day after treatment.
[10] abbreviates: 50 mg/L, the 28th day after treatment.
Where [11] appears, read: 100 mg/L, the 1st day after treatment.
Where [12] appears, read: 100 mg/L, the 3rd day after treatment.
The mark [13] stands for this setting: 100 mg/L, the 7th day after treatment.
[14] abbreviates: 100 mg/L, the 14th day after treatment.
The mark [15] stands for this setting: 100 mg/L, the 22nd day after treatment.
The mark [16] stands for this setting: 100 mg/L, the 28th day after treatment.

Each structure is given as a SMILES string.

Consider `CCC(C)(C)C(=O)OC1=C(c2ccc(Cl)cc2Cl)C(=O)OC12CCCCC2` [spirodiclofen, reference compound], for which the “Incubation inhibition rate (%)” value in data set [1] (0.25 mg/L) stood at 13%; in data set [1] (1 mg/L), 37%; in data set [1] (5 mg/L), 100%. Besides, the “Corrected efficacy (%)” value in data set [2] (setting [5]) turned out to be 20%; in data set [2] (setting [6]), 48%; in data set [2] (setting [7]), 63%; in data set [2] (setting [8]), 80%; in data set [2] (setting [9]), 71%; in data set [2] (setting [10]), 70%.
In the case of `Cc1cc(F)c(-c2cc(SCC(F)(F)F)c(C)cc2F)cc1SCC(F)(F)F` [Compound 1], the “Mortality (%)” value amounted to 100% in data set [3] (5 mg/L); 100% in data set [3] (100 mg/L); 64% in data set [4] (0.25 mg/L); 97% in data set [4] (0.5 mg/L); 100% in data set [4] (1 mg/L); 80% with spider mites (50 mg/L). Moreover, in the data set with spider mites (200 mg/L), the “Mortality (%)” value is given as 88%. The “Incubation inhibition rate (%)” value was 18% in data set [1] (0.25 mg/L), 34% in data set [1] (1 mg/L) and 100% in data set [1] (5 mg/L). In addition, the “Corrected efficacy (%)” value came out at 9% in data set [2] (25 mg/L, the 1st day after treatment); 53% in data set [2] (25 mg/L, the 3rd day after treatment); 74% in data set [2] (25 mg/L, the 7th day after treatment); 77% in data set [2] (25 mg/L, the 14th day after treatment); 75% in data set [2] (25 mg/L, the 22nd day after treatment); 73% in data set [2] (25 mg/L, the 28th day after treatment). The “Corrected efficacy (%)” value amounted to 18% in data set [2] (setting [5]); 87% in data set [2] (setting [6]); 92% in data set [2] (setting [7]); 91% in data set [2] (setting [8]); 92% in data set [2] (setting [9]); 92% in data set [2] (setting [10]). Also, the “Corrected efficacy (%)” value in data set [2] (setting [11]) is given as 25%; in data set [2] (setting [12]), 89%; in data set [2] (setting [13]), 97%; in data set [2] (setting [14]) it was 99%; in data set [2] (setting [15]), 99%; in data set [2] (setting [16]), 98%.
With `Cc1cc(F)c(-c2cc([S+]([O-])CC(F)F)c(C)cc2F)cc1SCC(F)F` (centres unmarked) [Compound 63], the “Mortality (%)” value in data set [3] (100 mg/L) worked out at 100%.
For the molecule `Cc1cc(F)c(-c2cc([S+]([O-])CC(F)(F)F)c(C)cc2F)cc1SCC(F)(F)F` (centres unmarked) [Compound 2], the “Mortality (%)” value in data set [3] (100 mg/L) is given as 100%.
Still for that read-out and setting: the same measure for `Cc1cc(F)c(-c2cc(SCC(F)F)c(C)cc2F)cc1SCC(F)F` [Compound 62]: 100%; for `Cc1cc(F)c(-c2cc([S+]([O-])CC(F)(F)F)c(C)cc2F)cc1[S+]([O-])CC(F)(F)F` (centres unmarked) [Compound 3]: 100%.
On to `CC(C)(C)c1ccc(CSc2cnn(C(C)(C)C)c(=O)c2Cl)cc1` [pyridaben, reference compound], for which the “Mortality (%)” value in data set [4] (0.25 mg/L) is 25%; in data set [4] (0.5 mg/L) it was 60%; in data set [4] (1 mg/L), 84%. Further, the “Corrected efficacy (%)” value in data set [2] (setting [11]) turned out to be 0%; in data set [2] (setting [12]) it was 65%; in data set [2] (setting [13]) it was 90%; in data set [2] (setting [14]), 93%; in data set [2] (setting [15]) it was 92%; in data set [2] (setting [16]), 95%.
